Data from publication PMC12051030, “Identification of inhibitors of the Salmonella FraB deglycase, a drug target” (FEBS Open Bio, 2025).
Like-named read-outs stand apart in the source and are kept apart here.

Tests used:
FraB = FraB (Salmonella enterica subsp. enterica serovar Typhimurium, UniProt Q8ZLD0); test: Native MS of FraB–inhibitor complexes; assay type: binding; conditions: for binding to FraB by native MS (species observed): 3 μM FraB, 120 μM inhibitor, IST 50 V, E2I/E2I2 = FraB dimer bound to one or two inhibitor copies; for type of FraB–inhibitor interaction (covalent vs noncovalent): decrease in E2I and E2I2 with increasing IST voltage
Chain of FraB (Q8ZLD0 entry or part of it): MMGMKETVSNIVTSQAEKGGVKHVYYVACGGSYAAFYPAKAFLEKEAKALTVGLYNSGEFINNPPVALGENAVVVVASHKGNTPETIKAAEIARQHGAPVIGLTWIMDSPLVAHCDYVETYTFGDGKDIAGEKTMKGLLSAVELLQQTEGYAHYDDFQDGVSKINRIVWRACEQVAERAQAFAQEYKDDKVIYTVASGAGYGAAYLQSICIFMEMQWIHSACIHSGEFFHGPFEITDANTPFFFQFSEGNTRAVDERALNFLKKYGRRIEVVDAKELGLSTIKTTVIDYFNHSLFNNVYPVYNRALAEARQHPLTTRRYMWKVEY
Protocol: For MS analysis, FraB was buffer exchanged into 200 mM ammonium acetate (AmAc) (Sigma‐Aldrich) or 66.7 mM ethylenediaminediacetic acid (EDDA) (Sigma‐Aldrich) using micro Bio‐spin P6 spin columns (Bio‐Rad); AmAc and EDDA concentrations were chosen to ensure the same ionic strength. The pH was adjusted to 7.5 by adding ammonium hydroxide solution (Sigma‐Aldrich). 6‐P‐F‐Asp was diluted with water, while three different inhibitors [3470:A09, 3469:F02, and 3469:N17, all purchased from either ChemDiv (San Diego, CA, USA) or Ambinter (Orléans, France)] were diluted in DMSO. The final concentration of DMSO used in the native MS experiments was 4.8% (v/v) or 1% (v/v) for the compounds obtained from ChemDiv or Ambinter, respectively.
For the characterization of FraB–inhibitor complexes, the protein was diluted into 200 mM AmAc and then mixed with inhibitors to final concentrations of 3 μM FraB and 120 μM inhibitor. After adding the inhibitors, the FraB–inhibitor complex was incubated for 20 min at 20 °C before injecting into the mass spectrometry (MS). For the characterization of FraB–inhibitor–substrate complexes, FraB was diluted into 66.7 mM EDDA, mixed with inhibitors, incubated at 20 °C for 20 min, and subsequently mixed with 6‐P‐F‐Asp. The final concentrations were as follows: 3 μM FraB (monomer concentration), 120 μM inhibitor, and 600 μM 6‐P‐F‐Asp.
Native MS experiments were performed on Thermo Q Exactive ultra high mass range (UHMR) Orbitrap. Samples were introduced into the MS instrument by nano‐electrospray ionization, which using glass capillary tips pulled in‐house using a P‐97 micropipette puller (Sutter Instruments, Novato, CA, USA). Each sample (3–5 μL) was loaded into the tips, and the electrospray voltage was set between 0.6 and 1.0 kV. The mass spectrometer was operated in positive mode using the following tuning settings: Capillary temperature: 200 °C detector optimization: low m/z; ion transfer target: high m/z; in‐source trapping (IST): 50 V, except when applying higher IST to disrupt the FraB–inhibitor interactions; HCD trap gas flow: 5; Resolution: 12 500. Mass spectra were collected after the spray stabilized (typically < 5 min) and then examined using XCalibur 4.1 (Thermo Scientific), and deconvolved using UniDec software.

[1] = molecular target: His6‐FraB (Salmonella FraB deglycase) (Salmonella enterica subsp. enterica serovar Typhimurium, UniProt Q8ZLD0); test: FraB-G6PD coupled assay, Michaelis–Menten analysis for K I and mode of inhibition; assay type: biochemical; conditions: for change of IC50 values with increasing [S]/K m: 'this trend' = IC50 does not vary with [S]/K m, change evident only from 0.2 to 1.6× [S]/K m; for slope in plots of 1/IC50 vs. v o/V max: Fig. S12; for mode of inhibition: kinetic analyses (Lineweaver‐Burk, α′ vs [I], IC50 vs [S]/K m, 1/IC50 vs v o/V max)
Chain of His6‐FraB (Salmonella FraB deglycase) (Q8ZLD0 entry or part of it): as above
Protocol: To determine the K I of each inhibitor, 29 μL of master mix was added to two rows of a 384‐well Greiner plate, using a single‐channel pipette, and incubated at 20 °C for 20 min. A 12‐channel pipette was then used to transfer and mix 1 μL of varying [6‐P‐F‐Asp] to all 48 wells. The final reaction (30 μL) consisted of 25 mM HEPES pH 8.0 at 20 °C, 5 mM MgCl2, 0.1 mM EGTA, 0.5 mM NAD^+, 1 mU G6PD, 100 nM His6‐FraB, varying (6‐P‐F‐Asp) (between 8 and 12 concentrations), and varying [inhibitor] (between three and five concentrations) in 10% (v/v) DMSO. NADH fluorescence was monitored every 10 s for 10 min total on a SPARK® multi‐mode multiplate reader (Tecan), as described above, and plotted against time. Slopes of the linear range of each curve were converted to initial velocities, as described above, that were then plotted against [6‐P‐F‐Asp]. A hyperbolic curve was then fitted to the data to obtain the k cat and K m values according to the formula: v o = (V max × [S])/(K m + [S]).
To determine the correlation between the observed and expected initial velocities (Fig. S5A), these values were exported from Kaleidagraph, plotted against one another, and a curve was fit using the formula: y = mx + b. The differences between observed and expected initial velocities (residuals) were then depicted as box‐and‐whisker plots (Fig. S5B). Lineweaver‐Burk plots were generated by graphing 1/v o versus 1/[S] and curves were fit to the data with Kaleidagraph using the formula: 1/v o = (Km/V max).(1/[S]) + (1/V max). The k cat and K m parameters were then converted into α′ values by dividing the k cat of the control (no inhibitor) by either itself (α′= 1) or the k cat of test samples with variable [inhibitor]. Those α′ values were plotted against [inhibitor] and K I values were determined from the equation α = 1 + [I]/K I.
The initial velocities used to generate the Michaelis–Menten plots were also employed to obtain the IC50 vs [S]/K m plots. For a given [S], initial velocities were converted into relative activities and plotted versus [inhibitor]. […] The IC50 values determined from the IC50 vs [S]/K m plots were then used to plot 1/IC50 versus v o/V max. A curve was fit to the data using the formula: y = mx + b. The Y‐intercept of the 1/IC50 versus v o/V max plot is equal to 1/K IC, and the slope, for mixed inhibitors, is equal to 1/K IU – 1/K IC. […] Data analyses were performed as described above (see Tables S1–S7 for curve‐fit errors and goodness‐of‐fit values).

[2] = Trial 1, 6-P-F-Asp 15.7 µM, S/Km 0.37381, unit from Fig. S11 axis, read-out: IC50 (IC50 versus [S]/Km plots)
[3] = Trial 1, 6-P-F-Asp 31.3 µM, S/Km 0.745238, unit from Fig. S11 axis, read-out: IC50 (IC50 versus [S]/Km plots)
[4] = Trial 1, 6-P-F-Asp 62.5 µM, S/Km 1.488095, unit from Fig. S11 axis, read-out: IC50 (IC50 versus [S]/Km plots)
[5] = Trial 1, 6-P-F-Asp 125 µM, S/Km 2.97619, unit from Fig. S11 axis, read-out: IC50 (IC50 versus [S]/Km plots)
[6] = Trial 1, 6-P-F-Asp 250 µM, S/Km 5.952381, unit from Fig. S11 axis, read-out: IC50 (IC50 versus [S]/Km plots)
[7] = Trial 1, 6-P-F-Asp 500 µM, S/Km 11.90476, unit from Fig. S11 axis, read-out: IC50 (IC50 versus [S]/Km plots)
[8] = Trial 1, 6-P-F-Asp 750 µM, S/Km 17.85714, unit from Fig. S11 axis, read-out: IC50 (IC50 versus [S]/Km plots)
[9] = Trial 1, 6-P-F-Asp 1000 µM, S/Km 23.80952, unit from Fig. S11 axis, read-out: IC50 (IC50 versus [S]/Km plots)
[10] = Trial 1, 6-P-F-Asp 2000 µM, S/Km 47.61905, unit from Fig. S11 axis, read-out: IC50 (IC50 versus [S]/Km plots)
[11] = Trial 1, 6-P-F-Asp 3000 µM, S/Km 71.42857, unit from Fig. S11 axis, read-out: IC50 (IC50 versus [S]/Km plots)
[12] = Trial 2, 6-P-F-Asp 7.38 µM, S/Km 0.175714, unit from Fig. S11 axis, read-out: IC50 (IC50 versus [S]/Km plots)
[13] = Trial 2, 6-P-F-Asp 15.7 µM, S/Km 0.37381, unit from Fig. S11 axis, read-out: IC50 (IC50 versus [S]/Km plots)
[14] = Trial 2, 6-P-F-Asp 31.3 µM, S/Km 0.745238, unit from Fig. S11 axis, read-out: IC50 (IC50 versus [S]/Km plots)
[15] = Trial 2, 6-P-F-Asp 62.5 µM, S/Km 1.488095, unit from Fig. S11 axis, read-out: IC50 (IC50 versus [S]/Km plots)
[16] = Trial 2, 6-P-F-Asp 125 µM, S/Km 2.97619, unit from Fig. S11 axis, read-out: IC50 (IC50 versus [S]/Km plots)
[17] = Trial 2, 6-P-F-Asp 250 µM, S/Km 5.952381, unit from Fig. S11 axis, read-out: IC50 (IC50 versus [S]/Km plots)
[18] = Trial 2, 6-P-F-Asp 500 µM, S/Km 11.90476, unit from Fig. S11 axis, read-out: IC50 (IC50 versus [S]/Km plots)
[19] = Trial 2, 6-P-F-Asp 750 µM, S/Km 17.85714, unit from Fig. S11 axis, read-out: IC50 (IC50 versus [S]/Km plots)
[20] = Trial 2, 6-P-F-Asp 1000 µM, S/Km 23.80952, unit from Fig. S11 axis, read-out: IC50 (IC50 versus [S]/Km plots)
[21] = Trial 2, 6-P-F-Asp 2000 µM, S/Km 47.61905, unit from Fig. S11 axis, read-out: IC50 (IC50 versus [S]/Km plots)
[22] = Trial 2, 6-P-F-Asp 3000 µM, S/Km 71.42857, unit from Fig. S11 axis, read-out: IC50 (IC50 versus [S]/Km plots)
[23] = from Michaelis–Menten analysis of FraB at different inhibitor concentrations, average and standard error from two measurements, read-out: K I

Structure (SMILES)	binding to FraB by native MS (species observed) (FraB)	type of FraB–inhibitor interaction (covalent vs noncovalent) (FraB)	change of IC50 values with increasing [S]/K m [1]	slope in plots of 1/IC50 vs. v o/V max [1]	IC50 [1, 2] [µM]	IC50 [1, 3] [µM]	IC50 [1, 4] [µM]	IC50 [1, 5] [µM]	IC50 [1, 6] [µM]	IC50 [1, 7] [µM]	IC50 [1, 8] [µM]	IC50 [1, 9] [µM]	IC50 [1, 10] [µM]	IC50 [1, 11] [µM]	IC50 [1, 12] [µM]	IC50 [1, 13] [µM]	IC50 [1, 14] [µM]	IC50 [1, 15] [µM]	IC50 [1, 16] [µM]	IC50 [1, 17] [µM]	further results
c1ccc(-c2nnc3sc(C4COc5ccccc5O4)nn23)nc1 (centres unmarked) [3469:F02, 6‐(2,3‐dihydro‐1,4‐benzodioxin‐3‐yl)‐3‐pyridin‐2‐yl‐[1,2,4]triazolo[3,4‐b][1,3,4]thiadiazole]	distinct peaks corresponding to E2I and E2I2	noncovalent	slight increase	weakly negative	27.6	33.5	27.9	34	31.8	32.7	33.7	33.9	36.1	52.6	41.2	41.3	51.7	51.3	49.2	47.8	IC50 ([1]; Trial 1, 6-P-F-Asp 7.38 µM, S/Km 0.175714, unit from Fig. S11 axis, read-out: IC50 (IC50 versus [S]/Km plots)): 18.9 µM; IC50 [1, 18]: 46.1 µM; IC50 [1, 19]: 45.4 µM; IC50 [1, 20]: 48.9 µM; IC50 [1, 21]: 59.2 µM; IC50 [1, 22]: 67.2 µM; K IU/K IC ratio ([1]; average (±SE), from 1/IC50 versus v o/V max plots): 1.35 ± 0.25; Ki [1, 23]: 28.5 ± 3.5 µM; mode of inhibition [1]: mixed‐type competitive; IC50 ([1]; trial shown in Fig. S11 panels M-X, read-out: IC50, mean and standard deviation of all IC50 values in IC50 vs [S]/Km plot): 50 ± 8 µM; Ki ([1]; trial shown in Fig. S11 panels M-X, read-out: KI from α′ vs [I] plot): 25 µM; Ki ([1]; trial shown in Fig. S11 panels Y-AJ, read-out: KI from α′ vs [I] plot): 32 µM
CC(C)Cc1cc(-c2nn3c(-c4ccccc4Cl)nnc3s2)n[nH]1 [3470:A09, 3‐(2‐chlorophenyl)‐6‐[5‐(2‐methylpropyl)‐1H‐pyrazol‐3‐yl]‐[1,2,4]triazolo[3,4‐b][1,3,4]thiadiazole]	distinct peaks corresponding to E2I and E2I2	noncovalent	modest decrease	weakly positive	29.3	18.8	20.5	20.2	20.6	19.4	19.5	21.3	22.7	23.2	19	13.6	12.4	12.6	11.4	11.6	IC50 [1, 18]: 11 µM; IC50 [1, 19]: 10.9 µM; IC50 [1, 20]: 11.3 µM; IC50 [1, 21]: 11.1 µM; IC50 [1, 22]: 15.3 µM; Ki [1, 23]: 10.5 ± 3.5 µM; Ki ([1]; independent trial shown in Fig. S11 panels A-L, read-out: KI from α′ vs [I] plot): 7 µM; mode of inhibition [1]: mixed‐type uncompetitive; IC50 ([1]; single trial shown in Fig. 5, read-out: IC50, mean and standard deviation of all IC50 values in IC50 vs [S]/Km plot): 13 ± 3 µM; Ki ([1]; single trial shown in Fig. 5, read-out: KI from α′ vs [I] plot): 14 µM
